Results from patent US20240318225A1, “TECHNIQUES FOR ISOLATION OR ANALYSIS OF BACTERIAL PATHOGENS FROM PATIENT SAMPLES” (General Electric Company, priority 2021, published 2024).

Test system: E. coli clinical isolate
Experiment: microfluidic single cell antimicrobial susceptibility testing
Type: cell-based
Conditions: 8 μg/ml ampicillin; during the duration of the experiment
Method: The microfluidic device for single cell antimicrobial susceptibility testing was fabricated by soft lithography. The microchannel master mold was fabricated by photolithography patterning and reactive-ion etching of a silicon wafer. Microchannel layers were then fabricated by PDMS molding on the master mold. PDMS pre-polymer and cross-linker were mixed at 10:1 ratio. The mixture was poured on the master mold and incubated for at least 3 hours at 65° C. The single cell antimicrobial susceptibility testing device was fabricated by bonding the PDMS layer with a glass slide. Inlet and outlet reservoirs were created by punching the PDMS layer with a biopsy puncher.
To perform the microfluidic single cell antimicrobial susceptibility testing experiment, ampicillin was added to the enriched samples with concentrations of 0 μg/mL, 2 μg/mL, 4 μg/mL, and 8 μg/mL. Each respective solution was loaded into a microfluidic device by capillary force. The devices were then mounted onto an epi-fluorescence microscope (Leica DMI 4000B, objective 20× or 40×) with a microscope heating stage. The presence of bacteria was examined, and the bacterial growth was monitored continuously.
The disclosed workflows may be used for antimicrobial susceptibility testing using a microfluidic device. […]

`CC1(C)S[C@@H]2[C@H](NC(=O)[C@H](N)c3ccccc3)C(=O)N2[C@H]1C(=O)O` [ampicillin] was tested, and the “effect on bacteria at higher concentration” value was “some bacteria were lysed”.
